Twelve compounds from patent publication US6562839B1, “6-substituted heteroquinolinecarboxylic acid derivatives and addition salts thereof and processes for the preparation of both” (Kyorin Pharmaceutical Co., Ltd., priority 1999, dated 2003) can be followed below.

Series [1] has as its target AMPA receptor. Description: Binding experiment against AMPA receptor ([3H]-AMPA binding, crude synaptic membranes from cerebral cortex). Conditions: rat cerebral cortex crude synaptic membranes; [3H]-AMPA 5 nmol/L, potassium thiocyanate 100 mmol/L, 30 minutes at 0° C.; IC50 converted to Ki. The method, then:
Binding Experiment Against AMPA Receptor
To a crude synaptic membranes preparation prepared from cerebral cortex in rat were added [^3H]-AMPA (final concentration: 5 nmol/L) that binds selectively to AMPA receptors, potassium thiocyanate (final concentration: 100 mmol/L) and testing compound, and the mixture was incubated for 30 minutes at 0° C. After the reaction was stopped by suction filtration, the radioactivity on filter was measured with liquid scintillation counter. The specific binding level of [^3H]-AMPA was determined by subtracting the non-specific binding level in the presence of glutamic acid (0.1 mmol/L) from total binding level. The [^3H]-AMPA binding in the absence of testing compound was put on 100, and the concentration of compound to decrease by 50% (IC50 value) was determined, which was converted to Ki value to calculate the binding capacity of each compound to AMPA receptor (Eur. J. Pharmacol., 1993, 246, 195-204).

Each structure is given as a SMILES string. Structures can show the parent of a compound that is named as a salt.

The term Ki denotes a measure of affinity in units of concentration, obtained from inhibition or displacement. High values mean a looser hold on the target, low ones a stronger hold on the target. A word on the melting point: it is the temperature, or range, at which the solid turns liquid.

`O=C(Nc1ccccc1F)OCc1cn(-c2cc3cc(C(=O)O)c(=O)[nH]c3cc2[N+](=O)[O-])cn1` [Example 6] returned a Ki in series [1] of 8.22 nM.
On the same count and under the same terms, the same measure for `O=C(Nc1ccccc1)OCc1cn(-c2cc3cc(C(=O)O)c(=O)[nH]c3cc2[N+](=O)[O-])cn1` [Example 2, 1,2-Dihydro-7-nitro-2-oxo-6-(4-((phenylcarbamoyloxy)methyl)imidazole-1-yl)quinoline-3-carboxylic acid]: 22.4 nM.
With `O=C(Nc1ccccc1)OCc1cn(-c2cc3cc(C(=O)O)c(=O)[nH]c3cc2Cl)cn1` [Example 41, 7-Chloro-1,2-dihydro-2-oxo-6-(4-((phenylcarbamoyloxy)methyl)imidazole-1-yl)quinoline-3-carboxylic acid], the melting point lay in the range of 180 to 182 °C.
Consider `CCOC(=O)c1ccc(NC(=O)OCc2cn(-c3cc4cc(C(=O)OCC)c(=O)[nH]c4cc3C(F)(F)F)cn2)cc1` [Example 18, Ethyl 1,2-dihydro-6-(4-(((4-ethoxycarbonylphenyl)carbamoyloxy)methyl)imidazole-1-yl)-2-oxo-7-trifluoromethylquinoline-3-carboxylate], for which the Ki in series [1] amounted to 18.4 nM.
The same measure, in the same setting: in the case of `O=C(Nc1ccc(C(=O)O)cc1)OCc1cn(-c2cc3cc(C(=O)O)c(=O)[nH]c3cc2[N+](=O)[O-])cn1` [Example 16, 6-(4-(((4-Carboxyphenyl)carbamoyloxy)methyl)imidazole-1-yl)-1,2-dihydro-7-nitro-2-oxoquinoline-3-carboxylic acid] it was 16.5 nM.
`O=C(NCc1ccccc1)OCc1cn(-c2cc3cc(C(=O)O)c(=O)[nH]c3cc2C(F)(F)F)cn1` [Example 32] returned a melting point of 169 to 171 °C.
The same measure, in the same setting: in the case of `O=C(Nc1ccccc1Br)OCc1cn(-c2cc3cc(C(=O)O)c(=O)[nH]c3cc2C(F)(F)F)cn1` [Example 25, 6-(4-(((2-Bromophenyl)carbamoyloxy)methyl)imidazole-1-yl)-1,2-dihydro-2-oxo-7-trifluoromethylquinoline-3-carboxylic acid] it was 145 to 147 °C.
As for `O=C(Nc1cccc(C(=O)O)c1)OCc1cn(-c2cc3cc(C(=O)O)c(=O)[nH]c3cc2[N+](=O)[O-])cn1` [Example 15, 6-(4-(((3-Carboxyphenyl)carbamoyloxy)methyl)imidazole-1-yl)-1,2-dihydro-7-nitro-2-oxoquinoline-3-carboxylic acid], the Ki in series [1] came to 17.8 nM.
In turn, `O=C(Nc1ccccc1F)OCc1cn(-c2cc3cc(C(=O)O)c(=O)[nH]c3cc2[N+](=O)[O-])cn1` (as salt: HCl) [Example 6] had a melting point of 226 to 228 °C.
Consider `O=C(Nc1ccc(C(=O)O)cc1)OCc1cn(-c2cc3cc(C(=O)O)c(=O)[nH]c3cc2Cl)cn1` [Example 44, 6-((((4-Carboxyphenyl)carbamoyloxy)methyl)imidazole-1-yl)-7-chloro-1,2-dihydro-2-oxoquinoline-3-carboxylic acid], for which the melting point lay within 249 to 251 °C.
Compound `O=C(Nc1ccc(C(=O)O)cc1)OCc1cn(-c2cc3cc(C(=O)O)c(=O)[nH]c3cc2C(F)(F)F)cn1` [Example 19, 6-(4-(((4-Carboxyphenyl)carbamoyloxy)methyl)imidazole-1-yl)-1,2-dihydro-2-oxo-7-trifluoromethylquinoline-3-carboxylic acid] gave a melting point of 218 to 220 °C.
As for `O=C(Nc1cccc(C(=O)O)c1)OCc1cn(-c2cc3cc(C(=O)O)c(=O)[nH]c3cc2Cl)cn1` [Example 43, 6-((((3-Carboxyphenyl)carbamoyloxy)methyl)imidazole-1-yl)-7-chloro-1,2-dihydro-2-oxoquinoline-3-carboxylic acid], the melting point was 263 to 265 °C (dec.).
